Source: patent publication US20210254138A1, “SIALIC ACID TRANSPORTER PROTEINS AS BIOMARKERS AND DRUG TARGETS” (Quadram Institute Bioscience, priority 2018, published 2021)

What was measured:
[1] = molecular target: RgSBP (RUMGNA_02698); solute-binding protein of the sialic acid ABC transporter, full-length excluding the signal sequence (residues 1-29), N-terminal His-tag …; test: Isothermal titration calorimetry (ITC) of 2,7-anhydro-Neu5Ac binding to RgSBP (FIG. 4A); design: species or system Ruminococcus gnavus ATCC 29149; details: 50 mM Tris-HCl pH 7.5, cell protein 100 μM, syringe ligand 2 mM, single-binding site model
Text: The Nan cluster in R. gnavus ATCC 29149 is predicted to encode a putative sialic acid transporter of the SAT2 family, with RUMGNA_02698 predicted to be a solute binding protein (SBP) and RUMGNA_02697 and 02696 predicted to be two permeases (Crost et al., 2013; 2016). To determine the ligand specificity of R. gnavus SBP protein (RgSBP), the corresponding gene was amplified by PCR from the R. gnavus ATCC 29149 genome, cloned and heterologously expressed in E. coli and the His6-tag recombinant protein purified by immobilised metal ion affinity chromatography (IMAC).
The affinity of the interaction between RgSBP and sialic acid ligands was further assessed by ITC.
The full-length RgSBP excluding the signal sequence (residues 1-29), the full length RgNanA and full length RUMGNA_02695 were amplified from R. gnavus ATCC 29149 gDNA, and cloned into the pHISTEV expression system, introducing a His-tag at the N terminus using primers listed in Table S1. DNA manipulation was carried out in E. coli DH5α cells. […] Protein purification was assessed by standard SDS-polyacrylamide gel electrophoresis using NuPAGE Novex 4-12% Bis-Tris gels (Life Technologies, Paisley, UK). Protein concentration was measured with NanoDrop 1000 UV-Vis
Spectrophotometer (Thermo Fischer Scientific, Wilmington, Del.) and using the extinction coefficient calculated by Protparam (ExPASy-Artimo, 2012) from the peptide sequence. […]

[2] = system: R. gnavus ATCC 29149 nan deletion mutants; test: Growth on sole carbon source, nan deletion mutants; format: cell-based; details: 11.1 mM in YCFA, anaerobic
Text: R. gnavus mutants were generated using the ClosTron methodology (Heap et al., 2010), which inserts an erythromycin resistance cassette into the gene of interest. Target sites were identified using the Pertuka method (Perutka et al., 2004). The re-targeted introns were synthesised and ligated into the pMTL007C-E2 vector by ATUM (MenloPark, USA). The plasmids were then transformed into E. coli CA434 using the heat-shock protocol, and the recombinant clones selected for chloramphenicol resistance. Recombinant E. coli cells were grown overnight in 10 ml LB, 1 ml of the overnight culture was pelleted and washed with PBS. The E. coli cell pellet was resuspended in 200 μl of an R. gnavus overnight culture and the cell suspension spotted onto a non-selective BHI-YH plate. […]
(§1) The ability of the mutants to utilise sialic acids and sialoconjugates was assessed by supplementing YCFA with 11.1 mM of 2,7-anhydro-Neu5Ac, 3'SL, glucose or Neu5Ac in triplicate 200 μl cultures in 96-well microtiter plates. The OD595 nm was measured hourly for 10 h in an infinite F50 plate reader (Tecan, UK) housed within an anaerobic cabinet connected to Magellan V7.0 software.

[3] = system: R. gnavus ATCC 29149 wild-type; test: Growth on sole carbon source, wild-type strain; format: cell-based; details: 11.1 mM in YCFA, anaerobic
Protocol: R. gnavus ATCC 29149 was routinely grown in an anaerobic cabinet (Don Whitley, Shipley, UK) in BHI-YH as previously described (Crost et al., 2013). Growth on single carbon sources utilized anaerobic basal YCFA medium (Duncan et al., 2002) supplemented with 11.1 mM of specific mono- or oligosaccharides (2,7-anhydro-Neu5Ac, 3'Sialyllactose (3'SL) or glucose). The bacteria were grown to late exponential phase for RNA extraction, the culture was performed in 14 ml tubes. Growth was determined spectrophotometrically by monitoring changes in optical density at […] compared to the same medium without bacterium (ΔOD595 nm) hourly for 10 hours.
as §1

[4] = system: CC(=O)N[C@H]1[C@H]([C@H](O)[C@H](O)CO)OC(O)(C(=O)O)C[C@@H]1O; test: purified protein, by the assay type; details: other: substrate of RgNanA; Michaelis-Menten fit; pH 7.0
Protocol: Aldolase cleavage was measured by monitoring the decrease in absorbance at 340 nm (A340 nm) as NADH is converted to NAD by lactate dehydrogenase in a coupled reaction where pyruvate is released from sialic acid by the aldolase. Reactions were performed in a 100 μl volume with final concentrations of 150 μM NADH (Sigma, St Louis, USA), 0.5 U LDH (Sigma, St Louis, USA), 10 mM sialic acid (Neu5Ac or 2,7-anhydro-Neu5Ac) and 1.5 μg purified RgNanA or EcNanA (E. coli aldolase CAS: 9027-60-5, Carbosynth, UK) in 50 mM Na-phosphate buffer (pH 7.0). The reactions were performed at 37° C. and monitored using FLUOstar OPTIMA (BMG LABTECH). For kinetics experiments, the sialic acid concentration was varied at 20, 10, 5, 4, 2, 1, 0.4, 0.2, 0.1 mM and the initial rate of reaction determined for each concentration in triplicate before analysis was performed by fitting the data to a Michaelis-Menten using Graph Pad Prism (V 5.03).
The substrate specificity of RgNanA was determined using a coupled activity assay where pyruvate released during the conversion of sialic acid to ManNAc is converted to lactate by a lactate dehydrogenase and the subsequent loss of absorbance at 340 nm measured as NADH is converted to NAD^+. A commercially available E. coli sialic acid aldolase (EcNanA) was included as a control and enzymes were tested for activity against 2,7-anhydro-Neu5Ac and Neu5Ac. […] The kinetic parameters of RgNanA were determined by calculating the initial rate of reaction with increasing Neu5Ac concentrations. A Michaelis-Menten curve was fitted to the data and kinetic parameters determined (FIG. 7b).

## CC(=O)NC1C(O)CC2(C(=O)O)OC(C(O)CO)C1O2 (centres unmarked) [2,7-anhydro-Neu5Ac]
[1]
  Kd: 2.24 µM

## CC(=O)N[C@H]1[C@H]([C@H](O)[C@H](O)CO)O[C@@](O[C@H]2[C@@H](O)[C@@H](CO)O[C@@H](O[C@H]3[C@H](O)[C@@H](O)C(O)O[C@@H]3CO)[C@@H]2O)(C(=O)O)C[C@@H]1O (some centres unmarked) [3'SL, 3'-sialyllactose]
[2]
  growth on substrate as sole carbon source: no growth was detected
[3]
  utilisation as a sole carbon source (growth): able to utilise

## RgNanA (RUMGNA_02692, sialic acid aldolase) (Mediterraneibacter gnavus ATCC 29149)
[4]
  Km: 1473 ± 98 µM
  kcat: 2.757 ± 0.033 s⁻¹
